Our source for the IC50 values is PubChem BioAssay AID624344 (Sanford-Burnham Center for Chemical Genomics, 2012).

Calls of active or inactive are those of the source. How the calls were made is not given here. A value given as a limit tells only on which side of the number the result lay.

One assay concerns Cytotoxicity. Kind of assay: NFkB reporter suppression in cystic fibrosis bronchial cells – cell-based, uHTS hits, panel, cytotoxicity readout, dose response (AID 624344). To be noted: CF bronchial epithelial cells, mean of runs.
Assay in assay [1]: as above
As to conditions: CF bronchial epithelial cells, PAF-induced NFkB reporter inhibition; with PAF, mean of runs.

On to `O=C1NC(=S)N/C1=C\c1cccnc1`, for which the IC50 (commonly the concentration that gives 50% inhibition) in the assay with Cytotoxicity was > 79 µM (inactive); in assay [1], 5.71 µM.
Taken in the same sequence, the figures for `COc1ccc2c(c1)c(C(C)=O)c(C)n2-c1ccc(C(C)=O)cc1` were 44.5 µM and 2.83 µM.
Take `CN1CCN(S(=O)(=O)c2ccc(Sc3nnnn3-c3ccccc3)c([N+](=O)[O-])c2)CC1`: the values for the IC50 (with Cytotoxicity; in assay [1]) were 3.12 µM and 2.06 µM, respectively.
For `c1ccc2c(-c3cncc4ccccc34)cncc2c1`, the IC50 is 56.9 µM (inactive) with Cytotoxicity and 6.1 µM in assay [1].
Taken in the same sequence, the figures for `COc1cccc(-c2nnc3sc(C4CCCCC4)nn23)c1` were 10.6 µM and 0.82 µM.
Turning to `Cc1ccc(CNc2ncnc3ccc(-c4ccoc4C)cc23)o1`, the figures for the IC50 (in the assay with Cytotoxicity; in assay [1]) were 14.8 µM and 0.381 µM, respectively.
For the compound `Nc1ncnc(Sc2ccc(Cl)cc2)c1[N+](=O)[O-]`, the half-maximal inhibitory concentration (IC50) in the assay on Cytotoxicity was 11.6 µM; in assay [1] it was 4.13 µM.
On to `O=C(CSc1nc(C2CC2)nc2ccccc12)Nc1cccc(O)c1`, for which the half-inhibitory concentration (IC50) in the assay on Cytotoxicity was 42.8 µM; in assay [1], 2.58 µM.
Regarding `Cc1c(Cl)cccc1NC(=O)CSc1nc2ncc(Cl)cc2[nH]1`, the 50% inhibitory concentration (IC50) in the assay with Cytotoxicity is 15.5 µM; in assay [1], 10.6 µM.
Taken in the same sequence, the figures for `COc1ccc(-c2csc3ncnc(NCCN4CCOCC4)c23)cc1` were 47 µM and 3.79 µM.
`CCOC(=O)C1(C(=O)OCC)COC(=O)C1CN1Cc2cc3ccccc3nc2C1` (stereo not drawn): the IC50 in the assay on Cytotoxicity was 11.1 µM; in assay [1], 7.48 µM.
As for `COc1ccc(Cc2nnc(SCc3ccc([N+](=O)[O-])cc3)o2)cc1`, the half-inhibitory concentration (IC50) in the assay on Cytotoxicity is 41.8 µM; in assay [1], 1.76 µM.
Taken in the same sequence, the figures for `COc1cccc(-c2cc(NC=O)c3ncc(-c4ccc(C(C)=O)cc4)n3c2)c1` were 37.2 µM and 11.8 µM.
Turning to `Cc1nn(-c2cccc(Cl)c2)c2nc(C(F)(F)F)[nH]c(=O)c12`, the IC50 was 27.4 µM in the assay with Cytotoxicity and 16.9 µM in assay [1].
The matching figures for `COc1cc2c(c(OC)c1O)-c1ccc(OC)c(=O)cc1C(NC(=O)C(F)(F)F)CC2` (stereo not drawn): > 79 µM (inactive) and > 79 µM (inactive).
The matching figures for `Oc1ccc(C[C@H]2CNC(=S)N2CC2CCCN2C[C@H](Cc2ccc(O)cc2)N2C[C@H](Cc3ccc(O)cc3)N(CC3CCCCC3)C2=S)cc1` (stereo partly drawn): 15.4 µM and 10.3 µM.
Turning to `O=[N+]([O-])c1ccc(NC(=S)NCCc2ccc(F)cc2)cc1`, the IC50 in the assay with Cytotoxicity is 4.52 µM; in assay [1], 4.58 µM.
Taken in the same sequence, the figures for `Cn1c(SC2=CS(=O)(=O)c3ccccc32)nc2ccccc21` were 7.01 µM and 1.83 µM.
Taken in the same sequence, the figures for `Cc1cccc(CNc2ncnc3ccc(-c4ccoc4)cc23)c1` were 6.04 µM and below 0.15 µM.
The matching figures for `COc1ccc2ncn(-c3ccccc3)c2c1`: 60.6 µM (inactive) and 5.47 µM.
On to `Cc1ccc(NC(=O)c2cc(C(=O)c3cc(Cl)ccc3O)cn(-c3ccc(C)cc3)c2=O)cc1`, for which the IC50 with Cytotoxicity was 53 µM (inactive); in assay [1], 9.4 µM.
For `O=C(Nc1ccccc1)c1cc2ccccc2c(=O)s1`, the values for the IC50 (in the assay with Cytotoxicity; in assay [1]) were > 79 µM (inactive) and 5.4 µM, respectively.
The matching figures for `N#Cc1cccc(NC(=O)COC(=O)c2ccccc2C(=O)c2ccc(Cl)c([N+](=O)[O-])c2)c1`: 9.79 µM and 2.66 µM.
For the compound `C=C1C(=O)O[C@@H]2[C@H]3O[C@]3(C)CC/C=C(\C)CC[C@@H]12`, the values for the IC50 (in the assay on Cytotoxicity; in assay [1]) were 18.1 µM and 3.59 µM, respectively.
`C=C(C)[C@@H]1CCC2(C(=O)O)CC[C@]3(C)[C@H](CC[C@@H]4[C@@]5(C)CCC(=O)C(C)(C)[C@@H]5CC[C@]43C)[C@@H]12` (stereo partly drawn): the figures for the IC50 (in the assay with Cytotoxicity; in assay [1]) were 12.9 µM and 8.27 µM, respectively.
For `C=C1C(=O)OC2CC1C(O)CC(C)=CCCC(C)=CC(O)CC2C` (stereo not drawn), the IC50 in the assay on Cytotoxicity is 1.09 µM; in assay [1], 0.537 µM.
On to `C=C1C(=O)C2=CC1CCC(=O)C1(C)CCC(OC(C)=O)C(C)(C)C1CC2O` (stereo not drawn), for which the IC50 is 13.3 µM in the assay with Cytotoxicity and 1.35 µM in assay [1].
Taken in the same sequence, the figures for `COc1ccc(-c2oc3ccc(-c4ccc5c(c4)OCO5)cc3c2C#CC2(O)CCCCC2)cc1` were 41.3 µM and 2.67 µM.
Taken in the same sequence, the figures for `Cc1cc(N2CCOCC2)c2c(N)c(Br)cc(C)c2n1` were 20 µM and 0.729 µM.
Turning to `CN(C)/C=C/C(=O)c1ccc2noc(-c3ccccc3)c2c1`, the values for the concentration for half-maximal inhibition (IC50) (with Cytotoxicity; in assay [1]) were 10.8 µM and 3.54 µM, respectively.
Turning to `COc1ccc(Oc2cc(NC(=O)c3nn(C)cc3[N+](=O)[O-])cc([N+](=O)[O-])c2)cc1`, the IC50 in the assay with Cytotoxicity was 1.69 µM; in assay [1], 3.27 µM.
Taken in the same sequence, the figures for `CNc1ccc2ncc(-c3cccc(C(=O)N(C)C)c3)n2n1` were 53.7 µM (inactive) and 0.169 µM.
The matching figures for `COC(=O)c1ccc(NC(=O)c2ccccc2NS(=O)(=O)c2ccccc2)cc1`: 39 µM and 4.53 µM.
Taken in the same sequence, the figures for `Cc1cc(C)nc(Sc2ncnc(N)c2[N+](=O)[O-])n1` were 13.5 µM and 5.09 µM.
